Experimental data as given in article PMC12133982, “Predominant T-cell epitopes of SARS-CoV-2 restricted by multiple prevalent HLA-B and HLA-C allotypes in Northeast Asia” (Frontiers in Immunology, 2025).
Peptide text beside a SMILES is read from it.

Experiments:
[1] = biological target: HLA-C0102 (Homo sapiens, UniProt P10321, A176E/A330V/A35S/A97T/C350S/D114A/D33F/L171W/L180R/L218V/M285V/M309V/M331V/P208H/Q277E/Q291P/R121W/R243W/R30K/S123C/S140Y/S297R/T329A/T363A/V272M/V319A); assay: Competitive peptide binding assay, CIR-C0102; conditions: HMy2.CIR-C0102 cells, reference Cy5-[…], class from inhibition at 5 and 15 μM, flow cytometry MFI; read-out: Binding affinity with HLA-C0102
Method: (§1) Then, competitive peptide binding assays were performed.

[2] = biological target: HLA-C0401 (Homo sapiens, UniProt P10321, A176E/A330V/A35S/A73E/C25G/C350S/D138N/D33S/E299K/L171W/L180R/L218V/M285V/M309V/M331V/N104K/P208H/Q277E/Q291P/R243W/R38W/S101N/S123F/S140F/S297R/S48A/T329A/T363A/V319A/V327M); assay: Competitive peptide binding assay, CIR-C0401; conditions: HMy2.CIR-C0401 cells, reference Cy5-[…], class from inhibition at 5 and 15 μM, flow cytometry MFI; read-out: Binding affinity with HLA-C0401
Method: as §1

[3] = biological target: HLA-C0701 (Homo sapiens, UniProt P10321, K90N/S123Y); assay: Competitive peptide binding assay, CIR-C0701; conditions: HMy2.CIR-C0701 cells, reference Cy5-[…], class from inhibition at 5 and 15 μM, flow cytometry MFI; read-out: Binding affinity with HLA-C 0701
Method: as §1

[4] = biological target: HLA-C0602 (Homo sapiens, UniProt P10321, A176E/A330V/C350S/L171W/L180W/L218V/M285V/M309V/M331V/N104K/P208H/Q277E/Q291P/R121W/S101N/S123Y/S297R/T329A/T363A/V319A/V328M); assay: Competitive peptide binding assay, CIR-C0602
[5] = biological target: HLA-C0702 (Homo sapiens, UniProt P10321); assay: Competitive peptide binding assay, CIR-C0702
[6] = biological target: HLA-B5801 (Homo sapiens, UniProt P01889, A329T/C349S/D201E/D98Y/E176V/E187L/E204Q/E69T/G107R/I218V/I90N/K202T/L105A/L119I/N104I/N87E/Q89R/Q94S/R106L/R155S/R180L/R86G/S101N/S121R/S35A/S48A/T118I/V127L/V306I/V36M/Y140S/Y91M); assay: Competitive peptide binding assay, CIR-B5801; conditions: HMy2.CIR-B5801 cells, reference Cy5-[…], class from inhibition at 5 and 15 μM, flow cytometry MFI; read-out: Binding affinity with HLA-B5801
Method: as §1

[7] = biological target: HLA-B1502 (Homo sapiens, UniProt P01889, A329T/A93T/A95T/C349S/D201E/D98Y/E187L/E204Q/E69M/E70A/H137Y/K202T/L119I/Q94N/R155S/R180L/S121R/S35A/S48A/T118I/V306I/V36M/Y140S/Y91S); assay: Competitive peptide binding assay, CIR-B1502; conditions: HMy2.CIR-B1502 cells, reference Cy5-[…], class from inhibition at 5 and 15 μM, flow cytometry MFI; read-out: Binding affinity with HLA-B1502
Method: as §1

[8] = biological target: HLA-B1302 (Homo sapiens, UniProt P01889, A65T/A93T/A95T/D138N/D201E/D98Y/E176V/E204Q/E69M/E70A/G107R/K202T/L105A/L119W/N104T/N87E/Q94N/R106L/R155S/R169L/R180L/S101N/S121T/S35A/S48T/V127L/V36M/Y140L/Y91S); assay: Competitive peptide binding assay, CIR-B1302; conditions: HMy2.CIR-B1302 cells, reference Cy5-MMWYWGPSL, class from inhibition at 5 and 15 μM, flow cytometry MFI; read-out: Binding affinity with HLA-B1302
Method: as §1

[9] = biological target: HLA-B1501 (Homo sapiens, UniProt P01889, A329T/A93T/A95T/C349S/D201E/D98Y/E187L/E204Q/E69M/E70A/K202T/N87E/Q94N/R155S/R180W/S121R/S35A/S48A/V306I/V36M/Y140S/Y91S); assay: Competitive peptide binding assay, CIR-B1501; conditions: HMy2.CIR-B1501 cells, reference Cy5-[…], class from inhibition at 5 and 15 μM, flow cytometry MFI; read-out: Binding affinity with HLA-B1501
Method: as §1

[10] = biological target: HLA-B4801 (Homo sapiens, UniProt P01889, A269T/A93T/A95T/D138N/D98Y/E176V/N87E/Q94N/R180L/T167S/W171L/Y91S); assay: Competitive peptide binding assay, CIR-B4801; conditions: HMy2.CIR-B4801 cells, reference Cy5-[…], class from inhibition at 5 and 15 μM, flow cytometry MFI; read-out: Binding affinity with HLA-B4801
Method: as §1

[11] = biological target: HLA-B4001 (Homo sapiens, UniProt P01889, A65T/A93T/A95T/D138N/D98Y/E176V/E69K/N87E/Q56L/Q94N/R180L/S121R/S35A/S48T/T167S/V36M/W171L/Y33H/Y91S); assay: Competitive peptide binding assay, CIR-B4001; conditions: HMy2.CIR-B4001 cells, reference Cy5-[…], class from inhibition at 5 and 15 μM, flow cytometry MFI; read-out: Binding affinity with HLA-B4001
Method: as §1

[12] = biological target: HLA-B3501 (Homo sapiens, UniProt P01889, A329T/A93T/A95T/C349S/D201E/D98Y/E176V/E187L/E204Q/E69T/I218V/K202T/L119I/Q94N/R155S/R180L/S121R/S35A/S48A/T118I/V127L/V306I/V36M/Y140S/Y91F); assay: Competitive peptide binding assay, CIR-B3501; conditions: HMy2.CIR-B3501 cells, reference Cy5-[…], class from inhibition at 5 and 15 μM, flow cytometry MFI; read-out: Binding affinity with HLA-B3501
Method: as §1

[13] = biological target: HLA-B4601 (Homo sapiens, UniProt P01889, A329T/A93R/C349S/D201E/E100V/E187L/E204Q/E69M/E70A/I90K/K202T/N87E/R155S/R180W/S121R/S35A/S48A/V306I/V36M/Y140S); assay: Competitive peptide binding assay, CIR-B4601; conditions: for IC50: HMy2.CIR-B4601 cells, reference Cy5-[…], class from inhibition at 5 and 15 μM, flow cytometry MFI, read-out: Binding affinity with HLA-B4601
Method: as §1

[14] = biological target: HLA-B5101 (Homo sapiens, UniProt P01889, A329T/A93T/A95T/C349S/D138N/D201E/D98Y/E187L/E204Q/E69T/G107R/I218V/K202T/L105A/L119W/N104I/Q94N/R106L/R155S/R180L/S101N/S121T/S35A/S48A/V306I/V36M/Y195H/Y91F); assay: Competitive peptide binding assay, CIR-B5101; conditions: HMy2.CIR-B5101 cells, reference Cy5-[…], class from inhibition at 5 and 15 μM, flow cytometry MFI; read-out: Binding affinity with HLA-B5101
Method: as §1

[15] = biological target: HLA-B1301 (Homo sapiens, UniProt P01889, A65T/A93T/A95T/D138N/D201E/D98Y/E176V/E204Q/E69M/E70A/G107R/K202T/L105A/L119I/N104T/N87E/Q94N/R106L/R155S/R169L/R180L/S101N/S121R/S35A/S48T/T118I/V127L/V36M/Y140L/Y91S); assay: Competitive peptide binding assay, CIR-B1301; conditions: HMy2.CIR-B1301 cells, reference Cy5-[…], class from inhibition at 5 and 15 μM, flow cytometry MFI; read-out: Binding affinity with HLA-B1301
Method: as §1

Compound	IC50 [1]	IC50 [2]	IC50 [3]	IC50 [4]	IC50 [5]	IC50 [6]	IC50 [7]	IC50 [8]	IC50 [9]	IC50 [10]	IC50 [11]	IC50 [12]	IC50 [13]	IC50 [14]	IC50 [15]	inhibition at 5 µM ([13]; read-out: Inhibition % of Cy5-reference peptide binding, CIR-B4601, 5μM peptide)	inhibition at 15 µM ([13]; read-out: Inhibition % of Cy5-reference peptide binding, CIR-B4601, 15μM peptide)
C[C@H](NC(=O)[C@H](Cc1ccc(O)cc1)NC(=O)[C@H](C)NC(=O)[C@@H](N)Cc1ccccc1)C(=O)N[C@@H](CC(N)=O)C(=O)N[C@@H](CCCNC(=N)N)C(=O)N[C@@H](CC(N)=O)C(=O)N[C@@H](CCCNC(=N)N)C(=O)N[C@@H](Cc1ccccc1)C(=O)O [Epitope M43] (H-FAYANRNRF-OH; N-terminus and C-terminus assumed)	> 15 µM	> 15 µM	< 5 µM	5 to 15 µM	5 to 15 µM												
CC(C)C[C@H](N)C(=O)N[C@H](C(=O)N[C@@H](CCCCN)C(=O)N1CCC[C@H]1C(=O)N[C@@H](CO)C(=O)N[C@@H](Cc1ccccc1)C(=O)N[C@@H](Cc1ccc(O)cc1)C(=O)N[C@H](C(=O)N[C@@H](Cc1ccc(O)cc1)C(=O)O)C(C)C)C(C)C [Epitope Y125] (H-LVKPSFYVY-OH; N-terminus and C-terminus assumed)						5 to 15 µM	> 15 µM	> 15 µM	< 5 µM	> 15 µM							
CC(C)C[C@H](NC(=O)[C@H](CCC(=O)O)NC(=O)[C@H](CCCCN)NC(=O)[C@H](Cc1ccccc1)NC(=O)[C@H](CO)NC(=O)[C@@H](N)CC(C)C)C(=O)N[C@@H](CC(C)C)C(=O)N[C@H](C(=O)N[C@@H](Cc1ccc(O)cc1)C(=O)O)C(C)C [Epitope Y142] (H-LSFKELLVY-OH; N-terminus and C-terminus assumed)						< 5 µM	> 15 µM		5 to 15 µM	> 15 µM	> 15 µM	> 15 µM					
CC(C)C[C@H](NC(=O)[C@H](CC(=O)O)NC(=O)[C@@H](NC(=O)[C@H](CC(=O)O)NC(=O)[C@@H](NC(=O)[C@H](Cc1c[nH]cn1)NC(=O)[C@H](CO)NC(=O)[C@H](CCC(=O)O)NC(=O)[C@H](C)N)C(C)C)[C@@H](C)O)C(=O)O [Epitope Y198] (H-AESHVDTDL-OH; N-terminus and C-terminus assumed)						> 15 µM	> 15 µM	5 to 15 µM	> 15 µM	> 15 µM		> 15 µM	> 15 µM	> 15 µM			
CSCC[C@H](NC(=O)[C@H](C)NC(=O)[C@H](CCC(=O)O)NC(=O)[C@H](Cc1ccc(O)cc1)NC(=O)[C@H](Cc1ccccc1)NC(=O)[C@H](CCC(=O)O)NC(=O)[C@@H]1CCCN1C(=O)[C@H](CCC(=O)O)NC(=O)[C@@H](N)Cc1c[nH]c2ccccc12)C(=O)O [Epitope Y200] (H-WEPEFYEAM-OH; N-terminus and C-terminus assumed)						> 15 µM		> 15 µM	> 15 µM	> 15 µM		> 15 µM			> 15 µM		
CC[C@H](C)[C@H](NC(=O)[C@H](C)NC(=O)CNC(=O)[C@@H](NC(=O)[C@H](Cc1ccc(O)cc1)NC(=O)[C@@H](NC(=O)[C@@H](N)CC(C)C)[C@@H](C)O)[C@@H](C)O)C(=O)N[C@@H](CCCCN)C(=O)N[C@@H](CC(C)C)C(=O)O [Epitope Y243] (H-LTYTGAIKL-OH; N-terminus and C-terminus assumed)							> 15 µM		> 15 µM	> 15 µM		> 15 µM	< 5 µM		> 15 µM	77.3%	94%
CC[C@H](C)[C@H](NC(=O)[C@H](C)NC(=O)[C@H](C)NC(=O)[C@H](CC(N)=O)NC(=O)CNC(=O)[C@H](CC(=O)O)NC(=O)[C@H](CCC(N)=O)NC(=O)[C@H](C)NC(=O)[C@@H](N)Cc1ccccc1)C(=O)O [Epitope Y246] (H-FAQDGNAAI-OH; N-terminus and C-terminus assumed)						> 15 µM	> 15 µM	> 15 µM	> 15 µM	> 15 µM		> 15 µM			> 15 µM		
C[C@H](NC(=O)[C@H](CO)NC(=O)[C@@H](N)CCCCN)C(=O)NCC(=O)N[C@@H](Cc1ccccc1)C(=O)N1CCC[C@H]1C(=O)N[C@@H](Cc1ccccc1)C(=O)N[C@@H](CC(N)=O)C(=O)N[C@@H](CCCCN)C(=O)N[C@@H](Cc1c[nH]c2ccccc12)C(=O)O [Epitope Y306] (H-KSAGFPFNKW-OH; N-terminus and C-terminus assumed)								< 5 µM	> 15 µM	> 15 µM	> 15 µM						
